Test results as given in patent US20250228242A1 (priority 2021, published 2025).
Counter-ions that a name gives are not always drawn.

system: P. infestans; assay: whole plant or invertebrate; type: in vivo; settings: Phytophthora infestans, in Solanum tuberosum, read-out: P. infestans % inhibition

Q: Clc1ccc(-c2cc(-c3cccc(N4CCOCC4)c3)[nH]n2)cc1 [Compound 3, 4-{3-[3-(4-Chlorophenyl)-1H-pyrazol-5-yl]phenyl}morpholine] was tested. Which inhibition at 100 µM did it give?
A: The inhibition at 100 µM was 20%.

Q: Which inhibition at 100 µM does the source give for CN1CCOc2cc(-c3cc(-c4cccc(Br)c4)[nH]n3)ccc21 [Compound 44, 7-[5-(3-Bromophenyl)-1H-pyrazol-3-yl]-4-methyl-3,4-dihydro-2H-1,4-benzoxazine] here?
A: The inhibition at 100 µM was 5%.

Q: Which inhibition at 100 µM does the source give for Nc1ccc(-c2cc(-c3ccccc3F)no2)cc1 [Compound 45, 5-(4-Aminophenyl)-3-(2-fluorophenyl)-isoxazole] here?
A: Its inhibition at 100 µM is 76%.

Q: How did the inhibition at 100 µM turn out when CC(=O)Nc1ccc(-c2cc(-c3ccccc3F)no2)cc1 [Compound 46, N-{4-[3-(2-Fluorophenyl)-isoxazol-5-yl]phenyl}acetamide] was run?
A: Its inhibition at 100 µM is 7%.

Q: How did the inhibition at 100 µM turn out when Cc1ccc(S(=O)(=O)Nc2ccc(-c3cc(-c4ccccc4F)no3)cc2)cc1 [Compound 47, N-{4-[3-(2-Fluorophenyl)-isoxazol-5-yl]phenyl}-4-methylbenzenesulfonamide] was run?
A: Its inhibition at 100 µM is 19%.

Q: How did the inhibition at 100 µM turn out when COc1cc(-c2cc(-c3cccc(C(F)(F)F)c3)no2)ccc1Cl [Compound 48, 5-(4-Chloro-3-methoxyphenyl)-3-[3-(trifluoromethyl)phenyl]-isoxazole] was run?
A: The inhibition at 100 µM was 21%.

Q: With Oc1cc(-c2cc(-c3cccc(C(F)(F)F)c3)no2)ccc1Cl [Compound 49, 5-(4-Chloro-3-hydroxyphenyl)-3-[3-(trifluoromethyl)phenyl]-isoxazole] as the compound, how does the inhibition at 100 µM read?
A: Its inhibition at 100 µM is 3%.

Q: How did the inhibition at 100 µM turn out when Brc1cccc(-c2cc(-c3ccc4c(c3)OCCO4)n[nH]2)c1 [Compound 50, 5-(3-Bromophenyl)-3-(2,3-dihydro-1,4-benzodioxin-6-yl)-1H-pyrazole] was run?
A: Its inhibition at 100 µM is 28%.

Q: Which inhibition at 100 µM does the source give for COc1cccc(-c2nc(-c3ccc(F)cc3)no2)c1 [Compound 51, 3-(4-Fluorophenyl)-5-(3-methoxyphenyl)-1,2,4-oxadiazole] here?
A: Its inhibition at 100 µM is 8%.

Q: Which inhibition at 100 µM does the source give for CCSc1ccc(-c2cc(-c3ccccc3Cl)no2)cc1 [Compound 52, 3-(2-Chlorophenyl)-5-[4-(ethylsulfanyl)phenyl]-1,2-oxazole] here?
A: The inhibition at 100 µM was 9%.

Q: Cc1ccc(-c2cc(-c3cccc(OC(F)(F)F)c3)no2)cc1C [Compound 53, 5-(3,4-Dimethylphenyl)-3-[3-(trifluoromethoxy)phenyl]-isoxazole] was tested. Which inhibition at 100 µM did it give?
A: Its inhibition at 100 µM is 23%.

Q: With O=C(Nc1cccc(-c2c[nH]c(-c3ccc(F)cc3)n2)c1)C(F)(F)F [Compound 54, 2,2,2-Trifluoro-N-{3-[2-(4-fluorophenyl)-1H-imidazol-5-yl]phenyl}acetamide] as the compound, how does the inhibition at 100 µM read?
A: Its inhibition at 100 µM is 91%.

Q: With O=C(Nc1ccc(O)cc1)c1ccc(-c2nc(-c3ccc(N4CCCC4)cc3)c[nH]2)cc1 [Compound 55, N-(4-Hydroxyphenyl)-4-{4-[4-(pyrrolidin-1-yl)phenyl]-1H-imidazol-2-yl}benzamide] as the compound, how does the inhibition at 100 µM read?
A: Its inhibition at 100 µM is 85%.

Q: With O=C(O)c1ccc(-c2n[nH]c(-c3ccc(Cl)cc3)n2)cc1 [Compound 56, 4-[5-(4-Chlorophenyl)-1H-1,2,4-triazol-3-yl]benzoic acid hydrochloride] as the compound, how does the inhibition at 100 µM read?
A: Its inhibition at 100 µM is 17%.

Q: For COc1ccc(NC(=O)Nc2ccc(-c3cc(-c4cccc(F)c4)on3)cc2)cc1 [Compound 57, 1-{4-[5-(3-Fluorophenyl)-1,2-oxazol-3-yl]phenyl}-3-(4-methoxyphenyl)urea], which inhibition at 100 µM is on record?
A: Its inhibition at 100 µM is 8%.

Q: For NCCCC[C@H](N)C(=O)Nc1ccc(-c2nc(-c3ccc(OC(F)(F)F)cc3)n[nH]2)cc1 [Compound 58, (2S)-2,6-Diamino-N-(4-{3-[4-(trifluoromethoxy)phenyl]-1H-1,2,4-triazol-5-yl}phenyl)hexanamide dihydrochloride], which inhibition at 100 µM is on record?
A: Its inhibition at 100 µM is 89%.

Q: How did the inhibition at 100 µM turn out when O=C(c1ccc(-c2n[nH]c(-c3ccc(Cl)cc3)n2)cc1)N1CCOCC1 [Compound 59, {4-[5-(4-Chlorophenyl)-1H-1,2,4-triazol-3-yl]phenyl}(morpholin-4-yl)methanone hydrochloride] was run?
A: Its inhibition at 100 µM is 87%.

Q: For Oc1ccc(-c2coc(-c3ccc4ncccc4c3)n2)cc1 [Compound 60, 6-[4-(4-Hydroxyphenyl)-1,3-oxazol-2-yl]quinoline], which inhibition at 100 µM is on record?
A: The inhibition at 100 µM was 9%.

Q: Which inhibition at 100 µM does the source give for O=C(Nc1ccc(-c2nc(-c3ccc(OC(F)(F)F)cc3)n[nH]2)cc1)C(F)(F)F [Compound 61, 2,2,2-Trifluoro-N-(4-{5-[4-(trifluoromethoxy)phenyl]-1H-1,2,4-triazol-3-yl}phenyl)acetamide] here?
A: The inhibition at 100 µM was 71%.

Q: How did the inhibition at 100 µM turn out when O=C(O)c1cccc(-c2noc(-c3ccccc3F)n2)c1 [Compound 62, 3-[5-(2-Fluorophenyl)-1,2,4-oxadiazol-3-yl]benzoic acid] was run?
A: Its inhibition at 100 µM is 64%.

Q: COc1ccc(-c2nc(-c3ccc(C(F)(F)F)cc3)no2)cc1 [Compound 64, 5-(4-Methoxyphenyl)-3-[4-(trifluoromethyl)phenyl]-1,2,4-oxadiazole] was tested. Which inhibition at 100 µM did it give?
A: The inhibition at 100 µM was 23%.

Q: For CSc1ccc(Cl)c(-c2nc(-c3cccc(OC(F)(F)F)c3)no2)c1 [Compound 65, 5-[2-Chloro-5-(methylsulfanyl)phenyl]-3-[3-(trifluoromethoxy)phenyl]-1,2,4-oxadiazole], which inhibition at 100 µM is on record?
A: The inhibition at 100 µM was 31%.

Q: With CCc1ccc(-c2nc(-c3ccc(OC(F)(F)F)cc3)c[nH]2)cc1 [Compound 66, 2-(4-Ethylphenyl)-4-[4-(trifluoromethoxy)phenyl]-1H-imidazole] as the compound, how does the inhibition at 100 µM read?
A: Its inhibition at 100 µM is 29%.

Q: For COc1ccc(-c2noc(-c3cccc(Cl)c3)n2)cc1 [Compound 67, 5-(3-Chlorophenyl)-3-(4-methoxyphenyl)-1,2,4-oxadiazole], which inhibition at 100 µM is on record?
A: The inhibition at 100 µM was 55%.

Q: How did the inhibition at 100 µM turn out when COc1ccc(-c2noc(-c3ccccc3Br)n2)cc1 [Compound 68, 5-(2-Bromophenyl)-3-(4-methoxyphenyl)-1,2,4-oxadiazole] was run?
A: The inhibition at 100 µM was 17%.

Q: Which inhibition at 100 µM does the source give for O=C(O)c1cccc(-c2ncc(-c3ccc(C(F)(F)F)cc3O)o2)c1 [Compound 69, 3-{5-[2-Hydroxy-4-(trifluoromethyl)phenyl]-1,3-oxazol-2-yl}benzoic acid] here?
A: Its inhibition at 100 µM is 99%.

Q: Which inhibition at 100 µM does the source give for Oc1ccc(-c2noc(-c3ccc(Cl)cc3)n2)cc1 [Compound 70, 5-(4-Chlorophenyl)-3-(4-hydroxyphenyl)-1,2,4-oxadiazole] here?
A: The inhibition at 100 µM was 33%.

Q: With FC(F)(F)c1cccc(-c2cc(-c3ccc4c(c3)OCCO4)n[nH]2)c1 [Compound 71, 3-(2,3-Dihydro-1,4-benzodioxin-6-yl)-5-[3-(trifluoromethyl)phenyl]-1H-pyrazole] as the compound, how does the inhibition at 100 µM read?
A: Its inhibition at 100 µM is 36%.

Q: With Oc1ccc(-c2nc(-c3ccc(C(F)(F)F)cc3)no2)cc1 [Compound 72, 5-(4-Hydroxyphenyl]-3-[4-(trifluoromethyl)phenyl]-1,2,4-oxadiazole] as the compound, how does the inhibition at 100 µM read?
A: Its inhibition at 100 µM is 83%.

Q: With O=[N+]([O-])c1ccc(-c2nc(-c3cccc(C(F)(F)F)c3)no2)cc1 [Compound 73, 5-(4-Nitrophenyl)-3-[3-(trifluoromethyl)phenyl]-1,2,4-oxadiazole] as the compound, how does the inhibition at 100 µM read?
A: The inhibition at 100 µM was 2%.

Q: With Nc1ccc(-c2nc(-c3cccc(C(F)(F)F)c3)no2)cc1 [Compound 74, 5-(4-Aminophenyl)-3-[3-(trifluoromethyl)phenyl]-1,2,4-oxadiazole] as the compound, how does the inhibition at 100 µM read?
A: The inhibition at 100 µM was 18%.

Q: How did the inhibition at 100 µM turn out when CC(C)OC(=O)Nc1ccc(-c2nc(-c3cccc(C(F)(F)F)c3)no2)cc1 [Compound 75, Propan-2-yl (4-{3-[3-(trifluoromethyl)phenyl]-1,2,4-oxadiazol-5-yl}phenyl)carbamate] was run?
A: Its inhibition at 100 µM is 31%.

Q: COC(=O)Nc1ccc(-c2nc(-c3ccc(OC(F)(F)F)cc3)n[nH]2)cc1 [Compound 77, Methyl (4-{5-[4-(trifluoromethoxy)phenyl]-1H-1,2,4-triazol-3-yl}phenyl)carbamate] was tested. Which inhibition at 100 µM did it give?
A: The inhibition at 100 µM was 6%.

Q: How did the inhibition at 100 µM turn out when Oc1ccc(-c2c[nH]c(-c3ccc(Cl)cc3)n2)cc1 [Compound 78, 2-(4-Chlorophenyl)-5-(4-hydroxyphenyl)-1H-imidazole] was run?
A: Its inhibition at 100 µM is 79%.

Q: With Cc1cccc(-c2nc(-c3ccc(Cl)c(Cl)c3)c[nH]2)c1 [Compound 79, 5-(3,4-Dichlorophenyl)-2-(3-methylphenyl)-1H-imidazole] as the compound, how does the inhibition at 100 µM read?
A: Its inhibition at 100 µM is 81%.

Q: Which inhibition at 100 µM does the source give for Clc1cccc(-c2cc(-c3ccc4c(c3)OCCO4)n[nH]2)c1 [Compound 80, 5-(3-Chlorophenyl)-3-(2,3-dihydro-1,4-benzodioxin-6-yl)-1H-pyrazole] here?
A: Its inhibition at 100 µM is 77%.

Q: With Oc1ccc(F)cc1-c1c[nH]c(-c2ccc(C(F)(F)F)cc2)n1 [Compound 81, 5-(2-Hydroxy-5-fluorophenyl)-2-[4-(trifluoromethyl)phenyl]-1H-imidazole] as the compound, how does the inhibition at 100 µM read?
A: The inhibition at 100 µM was 10%.

Q: COCCNC(=O)Nc1ccc(-c2n[nH]c(-c3ccc(C(F)(F)F)cc3)n2)cc1 [Compound 82, 1-(2-Methoxyethyl)-3-(4-{5-[4-(trifluoromethyl)phenyl]-1H-1,2,4-triazol-3-yl}phenyl)urea] was tested. Which inhibition at 100 µM did it give?
A: The inhibition at 100 µM was 18%.

Q: How did the inhibition at 100 µM turn out when O=C(O)c1ccc(-c2cc(-c3cccc(C(F)(F)F)c3)no2)cc1 [Compound 83, 4-{3-[3-(Trifluoromethyl)phenyl]-1,2-oxazol-5-yl}benzoic acid] was run?
A: The inhibition at 100 µM was 26%.

Q: For FC(F)(F)Oc1ccc(-c2c[nH]c(-c3ccc(Br)cc3)n2)cc1 [Compound 84, 2-(4-Bromophenyl)-5-[4-(trifluoromethoxy)phenyl]-1H-imidazole], which inhibition at 100 µM is on record?
A: Its inhibition at 100 µM is 96%.

Q: With Cc1ccc(-c2cc(-c3ccc(O)cc3)no2)cc1 [Compound 85, 3-(4-Hydroxyphenyl)-5-(4-methylphenyl)-1,2-oxazole] as the compound, how does the inhibition at 100 µM read?
A: The inhibition at 100 µM was 10%.

Q: For COc1cccc(-c2cnc(-c3cccc(Br)c3)[nH]2)c1 [Compound 86, 2-(3-Bromophenyl)-5-(3-methoxyphenyl)-1H-imidazole], which inhibition at 100 µM is on record?
A: The inhibition at 100 µM was 75%.

Q: How did the inhibition at 100 µM turn out when Oc1cccc(-c2cnc(-c3cccc(Br)c3)[nH]2)c1 [Compound 87, 2-(3-Bromophenyl)-5-(3-hydroxyphenyl)-1H-imidazole] was run?
A: The inhibition at 100 µM was 99%.

Q: With O=C(Nc1cccc(-c2c[nH]c(-c3ccc(F)cc3)n2)c1)c1ccccc1 [Compound 88, N-{3-[2-(4-fluorophenyl)-1H-imidazol-5-yl]phenyl}benzamide] as the compound, how does the inhibition at 100 µM read?
A: Its inhibition at 100 µM is 28%.

Q: How did the inhibition at 100 µM turn out when Cc1ccc(-c2noc(-c3ccc(S(C)(=O)=O)cc3)n2)cc1 [Compound 89, 3-(4-Methylphenyl)-5-[4-(methylsulfonyl)phenyl]-1,2,4-oxadiazole] was run?
A: Its inhibition at 100 µM is 8%.

Q: How did the inhibition at 100 µM turn out when CCc1ccc(-c2cc(-c3ccc(N4CCC4)cc3)on2)cc1 [Compound 90, 5-[4-(Azetidin-1-yl)phenyl]-3-(4-ethylphenyl)-1,2-oxazole] was run?
A: The inhibition at 100 µM was 13%.
